Reference: US9340577B2, “HLA binding motifs and peptides and their uses” (priority 1992, dated 2016)
No end group written: not given here.

Assays:
Test in all cases: biochemical
DRB1*0301 = DRB1*0301 (Homo sapiens, UniProt P01903+P01911, A100K/A102G/A103R/A169T/F55Y/I96L/K41T/L162R/M171V/P40S/Q125H/Q178H/Q39Y/R42S/S66N/T106N/T262R/W38E/Y61H); format: binding
DR1 (DRB1*0101) = DR1 (DRB1*0101) (Homo sapiens, UniProt P01903+P01911, A100R/D57E/F55L/F60I/F76Y/I96L/L162R/M171V/P40L/Q125E/R42F/V115G/Y59C); format: binding
DR4w4 (DRB1*0401) = DR4w4 (DRB1*0401) (Homo sapiens, UniProt P01903+P01911, A100K/A169T/F76Y/I96L/K127E/L162R/M171V/N62H/P40V/Q125Y/R42H/S133A/S149N/S66Y/V115G/V209L/W38E); format: binding
DRB1*1101 = DRB1*1101 (Homo sapiens, UniProt P01903+P01911, A100R/A169T/A87E/I96F/K41T/L162R/M171V/P40S/Q125H/Q178H/Q39Y/Q99D/R42S/S66Y/T262R/V115G/W38E); conditions: Binding affinity DRB1 *1101
DRB1*1101, sequence (P01903 26-254 limits assumed, other chains not shown): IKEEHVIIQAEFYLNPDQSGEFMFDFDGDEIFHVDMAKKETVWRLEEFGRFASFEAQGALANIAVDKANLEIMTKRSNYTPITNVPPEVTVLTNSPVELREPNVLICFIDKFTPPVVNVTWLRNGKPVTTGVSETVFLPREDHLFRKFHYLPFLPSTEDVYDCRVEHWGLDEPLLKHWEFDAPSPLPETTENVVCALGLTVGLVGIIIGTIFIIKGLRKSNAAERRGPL

DRB1*0802 = DRB1*0802 (Homo sapiens, UniProt P01903+P01911, A100R/A103L/A169T/F76Y/H45Y/I96F/K41T/L162R/M171V/P40S/Q125H/Q178H/Q39Y/Q99D/R218S/R42G/S66Y/V115G/W38E); format: binding
DRB4*0101 = DRB4*0101 (Homo sapiens, UniProt P01903+P13762, G164S); format: binding
DRB1*0405 = DRB1*0405 (Homo sapiens, UniProt P01903+P01911, A100R/A169T/D86S/F76Y/I96L/K127E/L162R/M171V/N62H/P40V/Q125Y/R42H/S133A/S149N/S66Y/V115G/V209L/W38E); format: binding
DRB1*1501 = DRB1*1501 (Homo sapiens, UniProt P01903+P01911); format: binding
DRB5*0101 = DRB5*0101 (Homo sapiens, UniProt P01903+Q30154); conditions: Binding affinity DRB5 *0101
DRB1*1302 = DRB1*1302 (Homo sapiens, UniProt P01903+P01911, A100E/A169T/K41T/L162R/M171V/P40S/Q125H/Q178H/Q39Y/Q99D/R42S/S66N/T262R/V115G/W38E/Y61H); format: binding
DRB1*1302, sequence (P01903 26-254 limits assumed, other chains not shown): as above

DRB1*0901 = DRB1*0901 (Homo sapiens, UniProt P01903+P01911, A100R/A103E/D57H/D86V/F55Y/F60I/F76Y/I96F/K127E/L162R/M171V/P40D/Q125H/Q99R/R33Q/R42F/S133A/S66N/T210M/V115G/W38K/Y107V/Y59G/Y89S); format: binding
DRB1*1201 = DRB1*1201 (Homo sapiens, UniProt P01903+P01911, A100R/A169T/D57E/D86V/F55L/H45Y/K41T/L162R/M171V/P40S/Q125H/Q178H/Q39Y/Q99D/R42G/S66L/T262R/V114A/V67L/W38E/Y59H/Y61H/Y89S); format: binding
DR7 (DRB1*0701) = DR7 (DRB1*0701) (Homo sapiens, UniProt P01903+P01911, A100R/A102G/A103Q/D57E/D86V/E43K/F76Y/K127E/L162R/M171V/P40G/Q125H/Q99D/R33Q/R42Y/R54Q/S133A/S66F/T210M/V115G/Y107V/Y59L/Y89S); format: binding

DRB1*0301, sequence (P01903 26-254 limits assumed, other chains not shown): as above

Row | Compound | IC50 (DRB1*0301) [nM] | IC50 (DR1 (DRB1*0101)) [nM] | IC50 (DR4w4 (DRB1*0401)) [nM] | IC50 (DRB1*1101) [µM] | IC50 (DRB1*0802) [µM] | IC50 (DRB4*0101) [nM] | IC50 (DRB1*0405) [nM] | IC50 (DRB1*1501) [µM] | IC50 (DRB5*0101) [µM] | IC50 (DRB1*1302) [nM] | IC50 (DRB1*0901) [µM] | IC50 (DRB1*1201) [µM] | IC50 (DR7 (DRB1*0701)) [nM]
1 | CC[C@H](C)[C@H](NC(=O)[C@@H](NC(=O)[C@@H]1CCCN1C(=O)[C@H](Cc1ccccc1)NC(=O)[C@H](Cc1ccccc1)NC(=O)[C@H](Cc1ccc(O)cc1)NC(=O)[C@H](CCC(N)=O)NC(=O)[C@H](Cc1c[nH]c2ccccc12)NC(=O)[C@H](CC(N)=O)NC(=O)CNC(=O)[C@@H](N)C(C)C)C(C)C)C(=O)N[C@@H](Cc1ccccc1)C(=O)N[C@@H](CO)C(=O)N[C@@H](CCCCN)C(=O)N[C@@H](C)C(=O)O [Peptide 58.0114] | 4.1 |  |  |  |  |  |  |  |  |  |  |  | 
2 | CC(C)C[C@H](NC(=O)[C@H](CCC(=O)O)NC(=O)[C@H](CCCCN)NC(=O)[C@H](C)N)C(=O)N[C@@H](CCCCN)C(=O)N[C@@H](Cc1ccccc1)C(=O)N[C@H](C(=O)N[C@H](C(=O)N[C@@H](CC(C)C)C(=O)N[C@H](C(=O)N[C@@H](Cc1ccccc1)C(=O)N[C@@H](CCCNC(=N)N)C(=O)N[C@@H](Cc1c[nH]cn1)C(=O)NCC(=O)N[C@@H](CC(=O)O)C(=O)O)C(C)C)[C@@H](C)O)C(C)C [Peptide 68.0025] | > 20000 |  |  |  |  |  |  |  |  |  |  |  | 
3 | AFQVIELQMALETLS [Peptide 89.0181] | 33 | 3110 | 62 | 2.14 | 8.16 | 349 | 252 | > 20 | 1.69 |  |  |  | 
4 | AYGISFMELVRPFKS [Peptide 89.0060] | 7090 | 640 | 1720 | 0.051 | 0.158 | 31 | 4260 |  | 3.03 | 4490 |  |  | 
5 | CTLVAGEVDYVGLYY [Peptide 90.0252] |  | > 20000 | 776 | 6.72 | > 20 | 20 | 9020 | > 20 | > 20 | 714 | 0.981 | 3.63 | > 20000
6 | DLRVVQQLLMGALTV [Peptide 85.0092] | > 20000 |  |  | 0.754 |  |  |  | 0.057 |  |  |  |  | 
7 | EVQIALESLSTTIYN [Peptide 90.0231] | 708 |  | 1280 | > 20 | > 20 | 39 | 4270 |  | > 20 | 4.3 | 0.406 |  | 32
8 | FIHFLQGAIISFVNS [Peptide 89.0088] | 4390 | 51 | 2910 | 5.6 | > 20 | 1680 |  |  | > 20 | 1590 | 0.867 |  | 
9 | GGDWKQIVMFLRYQG [Peptide 89.0013] | 6320 | 2040 | 793 | 0.198 |  | 7.9 |  |  | 0.014 | 899 |  |  | 2460
10 | GLYYWCDGEKIYFVK [Peptide 90.0226] | 432 | 698 |  | 9.14 | > 20 | > 20000 |  | 1.3 | > 20 |  | > 20 |  | 4930
11 | GQVIVCPASVSSNEV [Peptide 90.0016] | 7740 | 24 | 64 | 4.82 |  | 197 |  | 0.461 | 8.64 | 94 | 0.197 |  | 56
12 | HIEFTPTRTDTYACRV [Peptide 530.12] | 30000 |  |  |  |  |  |  |  |  |  |  |  | > 12500
13 | HWKLIRMECAIMYTA [Peptide 90.0021] | 82 | 28 |  |  | 14.1 | 161 | 84 | 3.84 | 3.07 | 54 |  |  | 2640
14 | KWGVLILALLRYKCG [Peptide 89.0027] | > 20000 |  | 584 | 0.49 |  |  |  | 3.74 |  | 571 | 0.81 |  | > 20000
15 | LIRMECAIMYTARQM [Peptide 90.0022] |  |  | 433 | 0.738 | 3.06 | 158 | 815 | 1.48 | 6.47 | 241 | 4.12 | 0.201 | 473
16 | LVEVTLGEVPAAESPD [Peptide F160.17] | 4020 |  | 976 |  |  |  |  |  |  |  |  |  | 
17 | NGVLQGITSWGSEPC [Peptide 68.0081] | > 20000 |  |  |  |  |  |  |  |  |  |  |  | 
18 | RLNLDNDEDKENNGD [Peptide 90.0144] |  | 31 | 1780 | 1.6 | 4.01 | 25 | 1680 | 0.581 |  | 1390 | 19.7 | 4.41 | 865
19 | TAIFGVNPTIAEGFK [Peptide 89.0024] | 374 |  |  | 4.04 | 11.1 | 592 | 17 | 11.5 | 17.9 |  | 4.48 |  | 180
20 | TPEWIERQTVLQHSF [Peptide 89.0048] | 34 | 643 | 451 |  |  | 19 |  | 6.06 | > 20 | 5480 | > 20 |  | > 20000
21 | TPEWIQRQTVLQHSF [Peptide 89.0010] |  |  | 80 | 0.738 | 2 | 33 | 17 | > 20 | 4.12 | 2100 | 2.87 | > 20 | 321
22 | TTIYNNEEWTLRDTC [Peptide 90.0232] |  | 10600 | > 20000 | 3.43 | > 20 | > 20000 | > 20000 | 10.2 | > 20 | 1010 | > 20 | > 20 | > 20000
23 | TVEVQFDGDICNTMH [Peptide 90.0167] |  | 2300 | 818 | > 20 | > 20 | 235 | > 20000 | 5.08 | > 20 | 39 | 0.583 | > 20 | 250
24 | VMAIFGVNPTVAEGF [Peptide 89.0080] | 699 | 190 | 77 | 5.6 | > 20 | 80 | 17 |  | 19.4 | 33 | 12.9 |  | 336
25 | VMFLRYQGVEFMSFL [Peptide 89.0014] | 18700 | 605 | 927 |  | 13.4 | 13 | 629 | 0.03 | 0.701 |  | 4.02 |  | 2540
26 | VSKLMSQLLNIPETH [Peptide 89.0101] | 922 | > 20000 | 10600 | > 20 | > 20 | > 20000 |  | > 20 | > 20 | 9530 | > 20 |  | > 20000
